Columns and labels:
[1] = tested on: isolated gastric fundic gland; assay: CAP: Acid Secretion Inhibition Test In Vitro ([14C]-aminopyrine uptake test); assay type: cell-based, male Japanese White rabbit; settings: Oryctolagus cuniculus; final concentration 10^-5 M, histamine 10^-5 M; read-out: acid secretion inhibitory rate (CAP)
Method: CAP: Acid Secretion Inhibition Test In Vitro
The acid secretion inhibitory activity in a cell level is studied. It can also be used for studying the mechanism of the effect.
ii-a) Preparation of isolated gastric fundus gland suspension
First, an isolated gastric fundic gland sample was prepared. Namely, a male Japanese White rabbit (2.5 to 3 kg) was anesthetized to death with Nembutal™ and then the abdomen was incised. Immediately thereafter, the stomach was removed and, after its pyloric and cardiac antrum were severed, incised along its greater curvature into two sheets. The gastric contents adhering to the mucosal surface was washed out with ice-cooled PBS (-) and then carefully washed therein. The gastric wall was spread on a cork board with its mucosal surface facing up and the feed and mucus thereon were completely removed with sterile gauze. The mucosa was separated therefrom by a spatula and then collected in ice-cooled PBS (-). After being washed twice with PBS (-), the mucosa was minced into 2-3 mm^3 pieces by scissors. These pieces were further washed twice with a nutrient solution. The nutrient solution comprises 132.4 mM of NaCl, 5.4 mM of KCl, 5 mM of Na2 HPO4.12H2 O, 1 mM of NaH2 PO4.2H2,
1.2 mM of MgSO4, 1 mM of CaCl2, 25 mM of HEPES, 2 mg/ml of glucose, and 1 mg/ml of BSA.
Into 70 ml of the nutrient solution containing 1 mg/ml of collagenase, minced mucosal pieces were dispersed and intensely stirred in a conical flask with a stirrer at 37° C. for 40 to 60 minutes. During this period, 100% O2 was sprayed on the nutrient solution surface and the pH was appropriately measured such that it was immediately adjusted to pH 7.4, when the value was therebelow, with a base. The nutrient solution was added to the reaction solution so as to attain the total amount of about 200 ml. After being filtered through a mesh, the suspension was divisionally introduced into 50 ml centrifuge tubes and left for 15 minutes such that gastric fundic gland was deposited. The supernatant was repeatedly removed by an aspirator, dispersed in the nutrient solution, and then left such that the gastric fundic gland was washed three times. At this time, without using a pipette, the suspension was alternately introduced into two centrifuge tubes so as to effect dispersion. The number of cells was counted under microscope and adjusted to 1.6×10^6 cells/ml.
ii-b) [^14 C]-aminopyrine uptake test.
Then, [^14 C]-aminopyrine uptake test was performed. After an Eppendorf tube was weighed, 10 μl (final concentration: 10^-5 M) of histamine dissolved in the above-mentioned nutrient solution, 10 μl (final concentration: 10^-5 M) of the test compound dissolved in DMSO, and 10 μl (final concentration: 0.05 μCi/ml) of [^14 C]-aminopyrine diluted with the nutrient solution were introduced therein and then 970 μl of the isolated gastric fundic gland suspension prepared above was added thereto. Subsequently, this mixture was shaken at 37° C. for 40 minutes at 125 cycles/minute. After being centrifuged for 30 seconds, 200 μl of its supernatant was collected into a mini-vial, while the rest was removed by an aspirator. The gland pellet was completely dried as the tube with its lid being opened was kept for one night in a drying oven at 80° C. and then the lid was closed and the weight was determined at room temperature. Then 100 μl of 1N KOH was added thereto and the tube with its lid being closed was treated at 60° C. for 1 to 2 hours so as to dissolve the pellet. Then, the contents thereof were transferred to a mini-vial. Into the mini-vial containing the supernatant or gland pellet, 4 ml of Atomlite™ was added and then the radioactivity was measured by a liquid scintillation counter. Here, after the radioactivity of the gland pellet was corrected by using a sample in which 20 mM of NaSCN was added so as to cancel the hydrogen ion concentration gradient, the integration ratio of aminopyrine specifically trapped by the gland pellet was calculated. […]

[2] = tested on: stress ulcer; assay: WIS: Restraint and Water Immersion Stress-Induced Ulcer Inhibition Test; assay type: in vivo, male Crj:SD or Slc:SD rats; settings: rat, 100 mg/kg oral, 7 h water immersion stress; read-out: ulcer formation inhibitory rate (WIS)
Method: WIS: Restraint and Water Immersion Stress-Induced Ulcer Inhibition Test
The degree of inhibition of the stress ulcer formation is tested.
Male Crj:SD or Slc:SD rats (6 to 7-week-old) were fasted overnight, but allowed free access to water. Each group has 5 to 8 of these rats. The sample compound was dissolved or suspended in an aqueous solution of 0.3% sodium carboxymethylcellulose or 0.05% Tween 80 and then was orally administered (100 mg/10 ml/kg. To a control group, the vehicle was administered. 10 minutes later, the rats were placed in a stress cage and immersed to the level of xipfoid process in a water bath (21° C.) for 7 hours. At the end of the stress, the rats were sacrificed by inhalation of ether or carbon dioxide. Then, the stomach of each was removed, inflated by injecting 10 ml of 5% formalin neutral buffer solution, and immersed in 1% formalin neutral buffer solution for 30 minutes or more to be fixed. The stomach was incised along the greater curvature and then the length of each erosion in the glandular portion was determined under dissecting microscope. The sum of the length of erosions per stomach was defined as ulcer index (UI).
The effect obtained when 100 mg/kg of the sample compound had been administered was expressed as ulcer formation inhibitory rate (%) as follows:
ulcer formation inhibitory rate (%)=(1-(UI in sample group/UI in control group))×100

[3] = tested on: Slc:ICR mice; design: species or system male Slc:ICR mice; settings: mouse, in vivo
Method: AT: Single Dose Toxicity Pretest
Male Slc:ICR mice (5-week-old) were used. Each group has 3 to 5 mice and each mouse was fasted, but allowed free access to water, for 4 to 5 hours from 9 a.m. in the test day. Then, 2,000 mg/10 ml/kg of the sample compound dissolved or suspended in an aqueous solution of 0.5% sodium carboxymethyl cellulose was orally administered thereto. To a control, only the vehicle was administered. […] The body weight was measured before and after the fasting as well as at the same time everyday. The dead animals were immediately subjected to autopsy and their organs were observed by naked eyes. Also, the living animals were sacrificed with ether or carbon dioxide one week after the administration and then their organs were observed by naked eyes.
The toxicity at the single dose of 2,000 mg/kg of the sample compound was expressed as being classified into 5 levels.
5: Mortality rate is 0%; no toxicity is found at all both in behavior and organs.
4: Mortality rate is 0%; while no toxicity is found in organs, slight toxicity is observed in behavior or body weight increase.
3: While there is a dead animal (though not all the animals are dead), no toxicity is found in organs.
2: Regardless of whether there is a dead animal or not, toxicity is found in organs.
1: All the animals are dead.

| SMILES | inhibition at 10 µM [1] [%] | inhibition in vivo at 100 mg/kg [2] [%] | toxicity at single dose (AT), 5 levels [3] |
| --- | --- | --- | --- |
| CCN1CCCC1CNC(=O)c1ccc(OCC=C(C)C)c(OCC=C(C)C)c1 (stereo not drawn) [Example 7, 1-ethyl-2-(3,4-diprenyloxybenzoylaminomethyl)pyrrolidine] | 99.7 | 92 | 3 |
| CCN1CCCC1CNC(=O)c1cc(OCC=C(C)C)ccc1OCC=C(C)C (stereo not drawn) [Example 6, 1-ethyl-2-(2,5-diprenyloxybenzoylaminomethyl)pyrrolidine] | 100 | 84 | 3 |
| CCN1CCCC1CNC(=O)c1cc(OC/C=C(\C)CCC=C(C)C)ccc1OC/C=C(\C)CCC=C(C)C (stereo not drawn) [Example 10, 1-ethyl-2-(2,5-digeranyloxybenzoylaminomethyl)pyrrolidine] | 100 | 74 | 3 |

Reference: patent US5925667A, “Pyrrolidine derivative, anti-ulcer drug, and antibacterial drug” (Shiseido Co., Ltd., priority 1997, dated 1999)
